{"source": "patent US8206690B2", "about": "“Oral health composition” (Mars Incorporated, priority 2006, dated 2012)", "assay_type_in_all_cases": "cell-based, dogs", "key": {"anaerobes": {"tested_on": "anaerobes", "assay": "Canine plate biofilm assay (PBA): bacterial viable counts, anaerobes", "conditions": "extracts at 500 μg/ml, counted after 9 days, vs controls", "description": "(§1) The assay requires fresh supragingival canine dental plaque and saliva for inoculation. The inoculum consists of pooled dental plaque and unfiltered saliva sampled from a group of 14 dogs, varying in age, breed and oral health status.\n(§2) The plaque and saliva were resuspended in artificial saliva to form the inoculum of approximately 15% plaque and 30% saliva.\n(§3) The plate biofilm assay (PBA) utilises a 24 well plate format in which biofilms, representative of canine dental plaque, are grown on hydroxyapatite (HA) discs. Prior to being introduced to the 24 well assay plate, each HA disc is preconditioned for 2 hours in a solution of 50% filter sterilised canine saliva in artificial canine saliva. […] Each HA disc, with the exception of those being used for biomass quantification, is placed into 500 μl PBS and vortex mixed for 30 seconds to remove biofilm growth from the disc into solution. […] Biofilm-covered HA discs that are being used for biomass quantification are removed from the 24 well assay plate and used directly in the crystal violet assay.\n(§4) Viable numbers of bacteria were quantified using Columbia blood agar plates supplemented with haemin and menadione. Aerobes were counted after incubation for 2 days and anaerobes, including black pigmenting colonies (BPC), were counted after incubation at appropriate conditions for 9 days. […]"}, "[1]": {"tested_on": "black pigmenting colonies (BPC)", "assay": "Canine plate biofilm assay (PBA): bacterial viable counts, black pigmenting colonies", "conditions": "extracts at 500 μg/ml, counted after 9 days, vs controls", "description": "as §1, §2, §3, §4"}, "[2]": {"tested_on": "Trypsin-like protease activity", "assay": "Canine plate biofilm assay (PBA): protease activity (liquid BAPNA assay)", "conditions": "48 hours, extracts at 500 μg/ml, vs controls", "description": "as §1, §2\nas §3, with “saliva. The preconditioning step stimulates the formation of a salivary pellicle on the HA disc surface.” for “saliva.”\nTrypsin-like protease activity was measured using the liquid BAPNA assay, a colourimetric assay in which the amount of trypsin present in a sample is directly proportional to the intensity of the colour developed. […]"}, "[3]": {"tested_on": "biofilms representative of canine dental plaque", "assay": "Canine plate biofilm assay (PBA): biomass quantification (crystal violet assay)", "conditions": "48 hours, extracts at 500 μg/ml, OD595 vs no active controls", "description": "as §1, §2\nas §3, with “saliva. The preconditioning step stimulates the formation of a salivary pellicle on the HA disc surface.” for “saliva.”\nThe total amount of biofilm grown on the HA discs was quantified using the crystal violet staining method. Biomass was represented as being directly proportional to the OD reading at 595 nm (OD595) of the samples compared to controls. […]"}, "Aerobes": {"tested_on": "Aerobes", "assay": "Canine plate biofilm assay (PBA): bacterial viable counts, aerobes", "conditions": "extracts at 500 μg/ml, counted after 2 days, vs controls", "description": "as §1, §2, §3, §4"}}, "data": [{"smiles": "[H]/N=C(\\N/C(=N/[H])NCCCCCCNC(=N)NC(=N)Nc1ccc(Cl)cc1)Nc1ccc(Cl)cc1", "note": "[Chlorhexidine, chlorhexidine]", "values": [{"measurement": "Anaerobe (Log 10 reduction)", "setting": "anaerobes", "result": 2.48, "unit": "Log 10 reduction"}, {"measurement": "BPC (Log 10 reduction)", "setting": "[1]", "result": 2.74, "unit": "Log 10 reduction"}, {"measurement": "Protease (% reduction)", "setting": "[2]", "result": 95.76, "unit": "%"}, {"measurement": "Biomass (% reduction)", "setting": "[3]", "result": 94.40, "unit": "%"}, {"measurement": "Aerobe (log 10 reduction)", "setting": "Aerobes", "result": 2.87, "unit": "log 10 reduction"}]}]}
